From US9283261B2, “Linaclotide compositions” (Forest Laboratories Holdings Ltd., priority 2012, dated 2016)
Bridge positions count the residues as written; N and C are the ends. Peptide text beside a SMILES is read from it.

Legend:
[1] = stability of linaclotide compositions with formaldehyde scavenger compounds, Cys1-IMD by RP-HPLC; type: physicochemical; conditions: 40° C., 75% relative humidity; for % Cys1-IMD after storage 4 Weeks / % Cys1-IMD after storage 8 Weeks / % Cys1-IMD after storage 13 Week: percent of chromatogram area, labeled canister (formaldehyde stressor); for % decrease in Cys1-IMD as compared to negative control (after 13 weeks) / % Cys1-IMD after storage 13 Week: 13 weeks
Description: 60 cc square HPDE bottle (with 33 mm caps with induction seals) were loaded with (i) capsules containing beads coated with 145 μg or 290 μg of linaclotide, a binder, calcium chloride and leucine with an approximate molar ratio of CaCl2:leucine:linaclotide of 60:30:1, (ii) either no formaldehyde scavenger compound (negative control) or a canister comprising one of the formaldehyde scavenger compounds disclosed in Table 3, and (iii) optionally a canister containing 3 grams of a silica gel desiccant.
In addition, some of the linaclotide compositions contained a formaldehyde stressor (in particular, an adhesive label on the desiccant canister that was applied by the manufacturer of the desiccant canister (Sud Chemie) (its presence in some linaclotide compositions is indicated in the table as “labeled canister”). Regarding the formaldehyde stressor canister, it was observed by applicants that the canister emits about 27.5 ug of formaldehyde in 24 hours at 60° C.
The linaclotide compositions were stored in a 40° C., 75% relative humidity stability chamber. Next, the quantity of Cys1-IMD in each linaclotide composition was determined following 4, 8 and 13 week storage via Reverse Phase-HPLC using a gradient elution with UV detection at 220 nm. Quantitation was based on percent of chromatogram area.
Test samples of linaclotide capsules are prepared by emptying the bead contents into flasks, adding diluent and shaking for 30 minutes. The analysis used the bead contents of a composite of 6 or 8 capsules (for 290 μg and 145 μg, respectively). Operating conditions for the analytical test method by HPLC are outlined in Table 2.

[2] = system: adult patients with IBS-C; assay: double-blind placebo-controlled studies in IBS-C (Study 1 and Study 2); type: in vivo, human; conditions: 290 mcg discontinued
Description: In this regard, the efficacy of oral dosage forms comprising […] for the management of IBS-C was established in two double-blind, placebo-controlled, randomized, multicenter studies in adult patients. A total of 800 patients in Study 1 and 804 patients in Study 2 (overall mean age of 43.9 years [range 18-87 years with 5.3% ≧65 years of age], 90.1% female, 77.4% white, 18.8% black, and 12.0% Hispanic) received treatment with LINZESS 290 mcg or placebo once daily and were evaluated for efficacy. All patients met Rome II criteria for IBS and were required to report a mean abdominal pain score of ≧3 on a 0-to-10-point numeric rating scale, <3 complete spontaneous bowel movements (CSBMs; a CSBM is a spontaneous bowel movement [SBM] that is associated with a sense of complete evacuation; an SBM is a bowel movement occurring in the absence of laxative use), and ≦5 SBMs per week during a 2-week baseline period. The study designs were identical through the first 12 weeks, and thereafter differed only in that Study 1 included a 4-week randomized withdrawal (RW) period, and Study 2 continued for 14 additional weeks (total of 26 weeks) of double-blinded treatment.
Efficacy of the oral dosage form of linaclotide was assessed using responder and change-from-baseline endpoints. Results for endpoints were based on information provided daily by patients. […]

% Cys1-IMD after storage 4 Weeks [1] | % Cys1-IMD after storage 8 Weeks [1] | % decrease in Cys1-IMD as compared to negative control (after 13 weeks) [1] | % Cys1-IMD after storage 13 Week [1] | Compound | rebound of bowel symptoms after discontinuation (4-week RW period) [2]
0.56% | 1.11% | −59% | 1.45% | NC(=O)C[C@H](N)C(=O)O [asparagine] | –
0.82% | 1.54% | −27% | 2.58% | COC(=O)[C@H](Cc1ccccc1)NC(=O)[C@@H](N)CC(=O)O [aspartame] (H-Asp-Phe-OMe) | –
0.59% | 0.81% | −76% | 0.84% | CNC[C@H](O)[C@@H](O)[C@H](O)[C@H](O)CO [d-meglumine] | –
0.60% | 0.68% | −72% | 1.00% | N[C@@H](Cc1c[nH]cn1)C(=O)O [histidine] | –
0.84% | 1.26% | −31% | 2.44% | CC(C)C[C@H](N)C(=O)O [leucine] | –
– | – | – | – | C[C@@H]1NC(=O)[C@@H]2CCCN2C(=O)[C@H](CC(N)=O)NC(=O)[C@@H]2CSSC[C@H](N)C(=O)N[C@H]3CSSC[C@H](NC1=O)C(=O)N[C@@H]([C@@H](C)O)C(=O)NCC(=O)N[C@H](C(=O)N[C@@H](Cc1ccc(O)cc1)C(=O)O)CSSC[C@H](NC(=O)[C@H](Cc1ccc(O)cc1)NC(=O)[C@H](CCC(=O)O)NC3=O)C(=O)N2 [linaclotide] (H-CCEYCCNPACTGCY-OH; disulfide 1-6, 2-10, 5-13 (inferred); N-terminus and C-terminus assumed) | no evidence of rebound worsening
0.52% | 0.78% | −61% | 1.36% | CC(C)C[C@H](N)C(=O)O [lyophilized leucine, leucine] | –

Compound | % Cys1-IMD after storage 4 Weeks [1] | % Cys1-IMD after storage 8 Weeks [1] | % decrease in Cys1-IMD as compared to negative control (after 13 weeks) [1] | % Cys1-IMD after storage 13 Week [1] | rebound of bowel symptoms after discontinuation (4-week RW period) [2]
NCC(=O)NCC(=O)O [glycine-glycine] (H-Gly-Gly-OH) | 0.89% | 1.40% | −44% | 1.98% | –
NCCCC[C@H](N)C(=O)O [lysine] | 0.87% | 1.27% | −47% | 1.87% | –
